Laboratory results from patent US20240246992A1, “MACROCYCLIC LRRK2 KINASE INHIBITORS” (LES LABORATOIRES SERVIER, priority 2021, published 2024).

Molecular target: human recombinant LRRK2 protein (Homo sapiens, UniProt Q5S007)
Assay: LRRK2 kinase activity assay (ADP-Glo, LRRKtide peptide)
Assay type: biochemical
Conditions: human recombinant LRRK2 wt, LRRKtide peptide and ATP, 1 h at 37° C.
Method in brief: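 Human recombinant LRRK2 reacted with LRRKtide peptide and ATP for 1 h at 37 °C in the presence of compound. ADP formed measured by ADP-Glo luminescence; IC50 fitted from 10 concentrations run in duplicate.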

Sequence of human recombinant LRRK2 protein (Q5S007 whole entry): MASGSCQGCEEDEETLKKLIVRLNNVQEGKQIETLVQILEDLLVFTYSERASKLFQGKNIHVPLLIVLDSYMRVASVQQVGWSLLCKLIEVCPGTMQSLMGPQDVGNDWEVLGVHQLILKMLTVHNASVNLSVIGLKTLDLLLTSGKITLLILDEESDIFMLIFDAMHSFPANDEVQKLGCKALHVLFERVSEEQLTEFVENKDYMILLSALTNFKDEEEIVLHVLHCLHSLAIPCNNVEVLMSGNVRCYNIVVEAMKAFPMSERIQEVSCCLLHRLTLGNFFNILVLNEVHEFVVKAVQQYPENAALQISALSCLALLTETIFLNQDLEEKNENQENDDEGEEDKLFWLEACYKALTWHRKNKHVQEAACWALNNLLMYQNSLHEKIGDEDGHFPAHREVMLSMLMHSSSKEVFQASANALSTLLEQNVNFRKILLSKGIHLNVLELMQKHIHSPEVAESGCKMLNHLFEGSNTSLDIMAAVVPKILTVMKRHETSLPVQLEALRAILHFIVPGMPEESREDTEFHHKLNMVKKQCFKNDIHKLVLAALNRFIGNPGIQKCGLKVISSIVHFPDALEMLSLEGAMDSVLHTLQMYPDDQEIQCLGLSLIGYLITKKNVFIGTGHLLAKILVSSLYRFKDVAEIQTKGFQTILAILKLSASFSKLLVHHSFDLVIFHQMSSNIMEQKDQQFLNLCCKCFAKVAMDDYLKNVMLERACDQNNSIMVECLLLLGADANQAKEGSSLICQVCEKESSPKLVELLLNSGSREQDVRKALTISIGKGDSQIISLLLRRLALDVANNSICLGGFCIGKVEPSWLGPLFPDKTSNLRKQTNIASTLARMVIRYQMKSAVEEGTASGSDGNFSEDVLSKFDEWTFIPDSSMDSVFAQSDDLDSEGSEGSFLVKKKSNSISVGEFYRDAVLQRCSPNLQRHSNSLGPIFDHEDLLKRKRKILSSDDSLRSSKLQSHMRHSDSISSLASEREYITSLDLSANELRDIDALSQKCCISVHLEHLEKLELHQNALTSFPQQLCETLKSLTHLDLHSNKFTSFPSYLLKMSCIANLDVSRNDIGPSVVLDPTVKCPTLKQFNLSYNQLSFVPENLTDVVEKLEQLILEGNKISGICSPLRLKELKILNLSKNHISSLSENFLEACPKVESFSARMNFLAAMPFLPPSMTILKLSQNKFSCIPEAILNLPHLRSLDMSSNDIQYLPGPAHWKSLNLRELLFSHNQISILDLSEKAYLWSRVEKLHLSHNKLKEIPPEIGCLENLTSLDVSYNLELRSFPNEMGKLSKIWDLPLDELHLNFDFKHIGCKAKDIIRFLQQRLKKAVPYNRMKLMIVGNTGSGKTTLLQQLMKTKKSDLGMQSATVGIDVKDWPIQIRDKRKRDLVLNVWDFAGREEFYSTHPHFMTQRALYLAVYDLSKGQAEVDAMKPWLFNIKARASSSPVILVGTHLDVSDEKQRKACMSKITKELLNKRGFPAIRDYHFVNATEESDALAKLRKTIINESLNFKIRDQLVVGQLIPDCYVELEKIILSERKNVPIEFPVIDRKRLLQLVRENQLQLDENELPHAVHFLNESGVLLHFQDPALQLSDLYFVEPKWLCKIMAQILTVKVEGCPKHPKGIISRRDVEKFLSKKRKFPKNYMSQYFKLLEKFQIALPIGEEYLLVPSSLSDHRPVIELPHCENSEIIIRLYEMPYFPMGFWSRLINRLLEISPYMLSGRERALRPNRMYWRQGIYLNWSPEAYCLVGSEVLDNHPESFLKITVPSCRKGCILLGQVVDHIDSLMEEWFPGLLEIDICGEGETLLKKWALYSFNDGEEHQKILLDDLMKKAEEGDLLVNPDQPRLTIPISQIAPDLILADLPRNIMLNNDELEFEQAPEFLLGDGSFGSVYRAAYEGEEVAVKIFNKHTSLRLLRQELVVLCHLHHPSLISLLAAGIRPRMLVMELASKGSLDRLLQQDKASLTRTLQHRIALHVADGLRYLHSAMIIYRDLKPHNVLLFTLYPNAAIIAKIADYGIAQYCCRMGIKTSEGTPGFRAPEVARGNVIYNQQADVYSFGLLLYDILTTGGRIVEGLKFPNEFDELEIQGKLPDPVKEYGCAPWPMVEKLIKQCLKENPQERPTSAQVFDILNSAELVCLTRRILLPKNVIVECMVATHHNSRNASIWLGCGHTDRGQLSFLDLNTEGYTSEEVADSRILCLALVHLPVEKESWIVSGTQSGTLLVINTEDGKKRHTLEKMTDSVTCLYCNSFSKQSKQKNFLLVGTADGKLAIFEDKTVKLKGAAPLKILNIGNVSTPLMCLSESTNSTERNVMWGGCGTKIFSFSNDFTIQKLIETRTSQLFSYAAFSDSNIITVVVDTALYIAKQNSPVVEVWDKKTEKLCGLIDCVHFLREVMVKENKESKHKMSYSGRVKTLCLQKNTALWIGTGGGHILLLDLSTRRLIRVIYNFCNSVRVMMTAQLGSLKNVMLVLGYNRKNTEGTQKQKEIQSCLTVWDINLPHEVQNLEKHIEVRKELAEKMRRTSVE

IC50 [nM] | SMILES
< 10 | O=C1COc2cc(F)cc(c2)-c2n[nH]c3ccc(cc23)OCCCN1 [Example 195, 4-fluoro-7,14-dioxa-10,19,20-triazatetracyclo[13.5.2.1^2,6.0^18,21]tricosa-1(20),2(23),3,5,15(22),16,18(21)-heptaen-9-one]
< 10 | O=C1COc2nccc(n2)-c2n[nH]c3ccc(cc23)OCCCN1 [Example 196, 7,14-dioxa-5,10,19,20,23-pentaazatetracyclo[13.5.2.1^2,6.0^18,21]tricosa-1(20),2(23),3,5,15(22),16,18(21)-heptaen-9-one]
< 100 | CN1CCCOc2ccc3[nH]nc(c3c2)-c2cncc(c2)OC(C)(C)C1=O [Example 197, 8,8,10-trimethyl-7,14-dioxa-4,10,19,20-tetraazatetracyclo[13.5.2.1^2,6.0^18,21]tricosa-1(20),2(23),3,5,15(22),16,18(21)-heptaen-9-one]
< 1000 | CN1CCCOc2ccc3[nH]nc(c3c2)-c2cncc(c2)OCCC1=O [Example 198, 11-methyl-7,15-dioxa-4,11,20,21-tetraazatetracyclo [14.5.2.1^2,6.0^19,22] tetracosa-1(21),2,4,6(24),16,18,22-heptaen-10-one]
< 100 | O=C1COc2cncc(c2)-c2n[nH]c3ccc(cc23)OCCN1 [Example 199, 7,13-dioxa-4,10,18,19-tetraazatetracyclo[12.5.2.1^2,6.0^17,20] docosa-1(19),2(22),3,5,14(21),15,17(20)-heptaen-9-one]
< 1000 | CN1CCCOc2ccc3[nH]nc(c3c2)-c2cc(cnc2F)OCC1=O [Example 200, 3-fluoro-10-methyl-7,14-dioxa-4,10,19,20-tetraazatetracyclo[13.5.2.1^2,6.0^18,21]tricosa-1(20),2,4,6(23),15(22),16,18(21)-heptaen-9-one]
< 10 | CC1(C)Oc2cncc(c2)-c2n[nH]c3ccc(cc23)OCCCNC1=O [Example 201, 8,8-dimethyl-7,14-dioxa-4,10,19,20-tetraazatetracyclo [13.5.2.1^2,6.0^18,21]tricosa-1(20),2(23),3,5,15,17,21-heptaen-9-one]
< 10 | O=C1COc2cncc(c2)-c2n[nH]c3ccc(cc23)OCC(F)(F)CN1 [Example 202, 12,12-difluoro-7,14-dioxa-4,10,19,20-tetraazatetracyclo [13.5.2.1^2,6.0^18,21]tricosa-1(20),2,4,6(23),15,17,21-heptaen-9-one]
< 10 | O=C1COc2cc(Br)cc(c2)-c2n[nH]c3ccc(cc23)OCCCN1 [Example 203, 4-bromo-7,14-dioxa-10,19,20-triazatetracyclo[13.5.2.1^2,6.0^18,21]tricosa-1(20),2(23),3,5,15,17,21-heptaen-9-one]
< 10 | O=C1COc2cc(cc(N3CCCCC3)c2)-c2n[nH]c3ccc(cc23)OCCCN1 [Example 204, 4-(piperidin-1-yl)-7,14-dioxa-10,19,20-triazatetracyclo [13.5.2.1^2,6.0^18,21]tricosa-1(20),2(23),3,5,15,17,21-heptaen-9-one]
< 10 | O=C1COc2cc(cc(N3CCCC3)c2)-c2n[nH]c3ccc(cc23)OCCCN1 [Example 205, 4-(pyrrolidin-1-yl)-7,14-dioxa-10,19,20-triazatetracyclo [13.5.2.1^2,6.0^18,21]tricosa-1(20),2(23),3,5,15,17,21-heptaen-9-one]
< 10 | O=C1COc2cc(cc(N3CCC(F)(F)C3)c2)-c2n[nH]c3ccc(cc23)OCCCN1 [Example 206, 4-(3,3-difluoropyrrolidin-1-yl)-7,14-dioxa-10,19,20-triazatetracyclo[13.5.2.1^2,6.0^18,21]tricosa-1(20),2(23),3,5,15,17,21-heptaen-9-one]
< 10 | O=C1COc2cc(cc(N3CCOCC3)c2)-c2n[nH]c3ccc(cc23)OCCCN1 [Example 207, 4-(morpholin-4-yl)-7,14-dioxa-10,19,20-triazatetracyclo [13.5.2.1^2,6.0^18,21]tricosa-1(20),2(23),3,5,15,17,21-heptaen-9-one]
< 10 | O=C1COc2cc(C3=CCOCC3)cc(c2)-c2n[nH]c3ccc(cc23)OCCCN1 [Example 208, 4-(3,6-dihydro-2H-pyran-4-yl)-7,14-dioxa-10,19,20-triazatetracyclo[13.5.2.1^2,6.0^18,21]tricosa-1(20),2(23),3,5,15,17,21-heptaen-9-one]
< 10 | O=C1COc2cc(cc(N3CCN(CC4CC4)CC3)c2)-c2n[nH]c3ccc(cc23)OCCCN1 [Example 209, 4-[4-(cyclopropylmethyl)piperazin-1-yl]-7,14-dioxa-10,19,20-triazatetracyclo[13.5.2.1^2,6.0^18,21]tricosa-1(20),2(23),3,5,15,17,21-heptaen-9-one]
< 10 | O=C1COc2cc(C3=CCCOC3)cc(c2)-c2n[nH]c3ccc(cc23)OCCCN1 [Example 210, 4-(5,6-dihydro-2H-pyran-3-yl)-7,14-dioxa-10,19,20-triazatetracyclo[13.5.2.1^2,6.0^18,21]tricosa-1(20),2(23),3,5,15,17,21-heptaen-9-one]

IC50 [nM] | SMILES
< 10 | O=C1COc2cc(C3=CCOC3)cc(c2)-c2n[nH]c3ccc(cc23)OCCCN1 [Example 211, 4-(2,5-dihydrofuran-3-yl)-7,14-dioxa-10,19,20-triazatetracyclo[13.5.2.1^2,6.0^18,21]tricosa-1(20),2(23),3,5,15,17,21-heptaen-9-one]
< 10 | O=C1COc2cc(cc(N3CCNCC3)c2)-c2n[nH]c3ccc(cc23)OCCCN1 [Example 212, 4-(piperazin-1-yl)-7,14-dioxa-10,19,20-triazatetracyclo [13.5.2.1^2,6.0^18,21]tricosa-1(20),2(23),3,5,15,17,21-heptaen-9-one]
< 10 | O=C1COc2cc(-c3ccoc3)cc(c2)-c2n[nH]c3ccc(cc23)OCCCN1 [Example 213, 4-(furan-3-yl)-7,14-dioxa-10,19,20-triazatetracyclo[13.5.2.1^2,6.0^18,21]tricosa-1(20),2(23),3,5,15,17,21-heptaen-9-one]
< 10 | O=C1COc2cc(cc(C3CCOC3)c2)-c2n[nH]c3ccc(cc23)OCCCN1 (centres unmarked) [Example 214, 4-(oxolan-3-yl)-7,14-dioxa-10,19,20-triazatetracyclo[13.5.2.1^2,6.0^18,21]tricosa-1(20),2(23),3,5,15,17,21-heptaen-9-one]
< 100 | C[C@H]1COc2ccc3[nH]nc(c3c2)-c2cccc(c2)OCC(=O)N[C@@H]1C [Example 215, (11R,12R)-11,12-dimethyl-7,14-dioxa-10,19,20-triazatetracyclo[13.5.2.1^2,6.0^18,21]tricosa-1(20),2,4,6(23),15(22),16,18(21)-heptaen-9-one]
< 10 | O=C1COc2cc(cc(N3C[C@@H](F)[C@H](F)C3)c2)-c2n[nH]c3ccc(cc23)OCCCN1 [Example 216, 4-[(3R,4R)-3,4-difluoropyrrolidin-1-yl]-7,14-dioxa-10,19,20-triazatetracyclo[13.5.2.1^2,6.0^18,21]tricosa-1(20),2(23),3,5,15,17,21-heptaen-9-one]
< 10 | O=C1COc2cc(cc(N3CCN(C4CC4)CC3)c2)-c2n[nH]c3ccc(cc23)OCCCN1 [Example 217, 4-(4-cyclopropylpiperazin-1-yl)-7,14-dioxa-10,19,20-triazatetracyclo[13.5.2.1^2,6.0^18,21]tricosa-1(20),2(23),3,5,15,17,21-heptaen-9-one]
< 10 | O=C1COc2cc(cc(C3CCCCO3)c2)-c2n[nH]c3ccc(cc23)OCCCN1 (centres unmarked) [Example 218, 4-(oxan-2-yl)-7,14-dioxa-10,19,20-triazatetracyclo[13.5.2.1^2,6.0^18,21]tricosa-1(20),2(23),3,5,15,17,21-heptaen-9-one]
< 10 | O=C1CCc2cc(F)cc(c2)-c2n[nH]c3ccc(cc23)OCCCN1 [Example 219, 4-fluoro-14-oxa-10,19,20-triazatetracyclo[13.5.2.1^2,6.0^18,21]tricosa-1(20),2(23),3,5,15(22),16,18(21)-heptaen-9-one]
< 10 | O=C1CCc2cncc(c2)-c2n[nH]c3ccc(cc23)OCCCN1 [Example 220, 14-oxa-4,10,19,20-tetraazatetracyclo[13.5.2.1^2,6.0^18,21]tricosa-1(20),2(23),3,5,15(22),16,18(21)-heptaen-9-one]
< 100 | CN1CCOc2ccc3[nH]nc(c3c2)-c2cccc(c2)OCCC1=O [Example 221, 11-methyl-7,14-dioxa-11,19,20-triazatetracyclo[13.5.2.1^2,6.0^18,21] tricosa-1(20),2(23),3,5,15,17,21-heptaen-10-one]
< 1000 | O=C1COCCn2ncc(n2)-c2n[nH]c3ccc(cc23)OCCN1 [Example 222, 8,14-dioxa-4,5,11,19,20,23-hexaazatetracyclo[13.5.2.1^2,5.0^18,21]tricosa-1(20),2(23),3,15(22),16,18(21)-hexaen-10-one]
< 10 | C[C@@H]1CCNC(=O)CCn2ncc(n2)-c2n[nH]c3ccc(cc23)O1 [Example 223, (12R)-12-methyl-13-oxa-4,5,9,18,19,22-hexaazatetracyclo[12.5.2.1^2,5.0^17,20]docosa-1(19),2(22),3,14(21),15,17(20)-hexaen-8-one]
< 10 | O=C1CCn2ncc(n2)-c2n[nH]c3ccc(cc23)OC[C@@H](F)CN1 [Example 225, (11S)-11-fluoro-13-oxa-4,5,9,18,19,22-hexaazatetracyclo [12.5.2.1^2,5.0^17,20]docosa-1(19),2(22),3,14(21),15,17(20)-hexaen-8-one]
< 10 | C[C@H]1CCNC(=O)CCn2ncc(n2)-c2n[nH]c3ccc(cc23)O1 [Example 226, (12S)-12-methyl-13-oxa-4,5,9,18,19,22-hexaazatetracyclo [12.5.2.1^2,5.0^17,20]docosa-1(19),2(22),3,14(21),15,17(20)-hexaen-8-one]
< 10 | O=C1CCn2ncc(n2)-c2n[nH]c3ccc(cc23)OC[C@H](F)CN1 [Example 227, (11R)-11-fluoro-13-oxa-4,5,9,18,19,22-hexaazatetracyclo [12.5.2.1^2,5.0^17,20]docosa-1(19),2(22),3,14(21),15,17(20)-hexaen-8-one]
